# From US12448373B2, “Azetidinyl-acetamides as CXCR7 inhibitors” (CHEMOCENTRYX, INC., priority 2021, dated 2025)
# Molecular target: T1, CXCR7 (Homo sapiens, UniProt P25106)
# T1 construct: expressed in transfected cells; host or cells: CHO cells (CHO-CXCR7), transgenes maintained with Hygromycin B and G418
# Assay: CXCR7 β-arrestin recruitment assay in CHO-CXCR7 cells (ProLink/EA β-galactosidase complementation), induced by human SDF-1a
# Type: cell-based
# Details: assay buffer, SDF-1a at EC50 concentration
# In short: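 SDF-1α-induced β-arrestin recruitment was measured by enzyme-fragment complementation (ProLink-CXCR7 with β-arrestin-EA) in stable CHO cells. Agonist was dosed at its EC50, determined the same day, alongside serially diluted compound for 1.5 h at 37 °C. Fluorogenic galactoside substrate (0.4 mM, 30 min) was read at 360/465 nm, with IC50 from 3-parameter nonlinear regression.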
# T1 sequence (P25106 whole entry): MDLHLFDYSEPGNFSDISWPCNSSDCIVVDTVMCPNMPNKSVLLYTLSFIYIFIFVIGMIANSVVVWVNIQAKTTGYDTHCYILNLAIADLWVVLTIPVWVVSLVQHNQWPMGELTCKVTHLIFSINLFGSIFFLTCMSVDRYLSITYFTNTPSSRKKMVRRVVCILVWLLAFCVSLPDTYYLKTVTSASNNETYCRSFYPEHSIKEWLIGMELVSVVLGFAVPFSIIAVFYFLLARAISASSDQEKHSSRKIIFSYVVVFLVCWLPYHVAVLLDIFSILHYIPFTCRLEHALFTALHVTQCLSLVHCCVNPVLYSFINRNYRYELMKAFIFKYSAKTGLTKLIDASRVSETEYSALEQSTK
row,Compound,IC50
1,CC(C)(NC(=O)CC1(NC(=O)c2cc(-c3ccc(F)cc3F)on2)CN([C@H]2CC[C@@](C)(O)CC2)C1)c1ccccc1 [Example 1.267],< 5 nM
2,COc1ccc(F)c(C(C)(C)NC(=O)CC2(NC(=O)c3cc(-c4ccc(F)cc4F)on3)CN([C@H]3CC[C@](C)(O)CC3)C2)c1 [Example 1.206],5 to 100 nM
3,CC(C)(NC(=O)CC1(NC(=O)c2cc(-c3ccc(F)cc3F)on2)CN([C@H]2CC[C@@](C)(O)CC2)C1)c1cc(Cl)ccc1Cl [Example 1.085],< 5 nM
4,CC(C)(NC(=O)CC1(NC(=O)c2cc(-c3ccc(F)cc3)on2)CN([C@H]2CC[C@@](C)(O)CC2)C1)c1ccccc1 [Example 1.089],5 to 100 nM
5,Cc1ccc(C(C)(C)NC(=O)CC2(NC(=O)c3cc(-c4ccc(F)cc4F)on3)CN([C@H]3CC[C@](C)(O)CC3)C2)cc1C(F)(F)F [Example 1.262],100 to 1000 nM
6,CC(C)(NC(=O)CC1(NC(=O)c2cc(-c3ccc(F)cc3F)on2)CN([C@H]2CC[C@](C)(O)CC2)C1)c1cccc(C(F)(F)F)n1 [Example 1.156],< 5 nM
7,Cc1cccc(C(C)(C)NC(=O)CC2(NC(=O)c3cc(-c4ccc(F)cc4F)on3)CN(C3CCC4(CC3)COC4)C2)n1 [Example 1.226],5 to 100 nM
8,Cc1cc(C(C)(C)NC(=O)CC2(NC(=O)c3cc(-c4ccc(F)cc4F)on3)CN(CC(C)(C)O)C2)ccn1 [Example 1.175],5 to 100 nM
9,CC(C)(NC(=O)CC1(NC(=O)c2cc(-c3ccc(F)cc3F)on2)CN([C@H]2CC[C@](C)(O)CC2)C1)c1ccccc1C(F)(F)F [Example 1.291],< 5 nM
10,CC(C)(NC(=O)CC1(NC(=O)c2cc(-c3ccc(F)cc3F)on2)CN([C@H]2CC[C@](C)(O)CC2)C1)c1cccc(Cl)c1 [Example 1.221],< 5 nM
11,CC(C)(NC(=O)CC1(NC(=O)c2cn(-c3ccc(F)cc3F)nn2)CN([C@H]2CC[C@](C)(O)CC2)C1)c1cccc(Cl)c1 [Example 1.067],5 to 100 nM
12,Cc1cc(C(C)(C)NC(=O)CC2(NC(=O)c3cc(-c4ccc(F)cc4F)on3)CN(C3CCC(C)(O)CC3)C2)cc(C)n1 (stereo not shown) [Example 1.111],5 to 100 nM
13,CC1(O)CCC(N2CC(CC(=O)NC3(c4ncccn4)CC3)(NC(=O)c3cc(-c4ccc(F)cc4F)on3)C2)CC1 (stereo not shown) [Example 1.277],< 5 nM
14,C[C@]1(O)CC[C@H](N2CC(CC(=O)NC3(c4ncccn4)CC3)(NC(=O)c3cc(-c4ccc(F)cc4F)on3)C2)CC1 [Example 1.356],5 to 100 nM
15,CC1(C)CC(N2CC(CC(=O)NC(C)(C)c3cccc(Cl)c3)(NC(=O)c3cc(-c4ccc(F)cc4F)on3)C2)CCO1 (stereo not shown) [Example 1.357],5 to 100 nM
16,CC(C)(NC(=O)CC1(NC(=O)c2cc(-c3ccc(F)cc3F)on2)CN(CC2CC2)C1)c1ccccc1 [Example 1.322],5 to 100 nM
17,CCc1cc(C(C)(C)NC(=O)CC2(NC(=O)c3cc(-c4ccc(F)cc4F)on3)CN([C@H]3CC[C@](C)(O)CC3)C2)ccn1 [Example 1.149],5 to 100 nM
18,CC(C)(O)CN1CC(CC(=O)NC(C)(C)c2cccc(F)c2)(NC(=O)c2cc(-c3ccc(F)cc3F)on2)C1 [Example 1.251],5 to 100 nM
19,COc1cccc(C(C)(C)NC(=O)CC2(NC(=O)c3cc(-c4ccc(F)cc4F)on3)CN([C@H]3CC[C@@](C)(O)CC3)C2)c1 [Example 1.238],5 to 100 nM
20,CCc1cc(C(C)(C)NC(=O)CC2(NC(=O)c3cc(-c4ccc(F)cc4F)on3)CN([C@H]3CC[C@@](C)(O)CC3)C2)ccn1 [Example 1.148],5 to 100 nM

row,Compound,IC50
1,CC1(CN2CC(CC(=O)NC(C)(C)c3ccccn3)(NC(=O)c3cc(-c4ccc(F)cc4F)on3)C2)CCC1 [Example 1.002],< 5 nM
2,Cc1c(C(=O)NC2(CC(=O)NC(C)(C)c3cccc(Cl)c3)CN(C3CCCCC3)C2)noc1-c1ccc(F)cc1F [Example 1.340],1000 to 20000 nM
3,CC(C)(NC(=O)CC1(NC(=O)c2cc(-c3ccc(F)cc3F)on2)CN([C@H]2CC[C@@](C)(O)CC2)C1)c1ccccn1 [Example 1.034],100 to 1000 nM
4,CC(C)N1CC(CC(=O)NC2(c3ncccn3)CC2)(NC(=O)c2cc(-c3ccc(F)cc3F)on2)C1 [Example 1.333],100 to 1000 nM
5,C[C@]1(O)CC[C@@H](N2CC(CC(=O)NCc3ccccc3)(NC(=O)c3cc(-c4ccc(F)cc4F)on3)C2)CC1 [Example 1.127],1000 to 20000 nM
6,Cc1cccc(C(C)(C)NC(=O)CC2(NC(=O)c3nnc(-c4ccc(F)cc4F)s3)CN(CC(C)C)C2)n1 [Example 1.027],5 to 100 nM
7,CC[C@@H](NC(=O)CC1(NC(=O)c2cc(-c3ccc(F)cc3F)on2)CN(C2CCCCC2)C1)c1ccccc1 [Example 1.307],5 to 100 nM
8,Cc1ccc(C(C)(C)NC(=O)CC2(NC(=O)c3cc(-c4ccc(F)cc4F)on3)CN([C@H]3CC[C@@](C)(O)CC3)C2)c(F)c1 [Example 1.246],5 to 100 nM
9,CC(C)(NC(=O)CC1(NC(=O)c2cn(-c3ccc(F)cc3F)nn2)CN([C@H]2CC[C@](C)(O)CC2)C1)c1ccccc1 [Example 1.081],5 to 100 nM
10,CC(C)(NC(=O)CC1(NC(=O)c2cc(-c3ccc(F)cc3F)on2)CN(C2CCCCC2)C1)c1ncccn1 [Example 1.270],5 to 100 nM
11,CC(C)(F)CN1CC(CC(=O)NC(C)(C)c2cccc(Cl)c2)(NC(=O)c2cc(-c3ccc(F)cc3F)on2)C1 [Example 1.096],100 to 1000 nM
12,Cc1cc(C)nc(C(C)(C)NC(=O)CC2(NC(=O)c3nnc(-c4ccc(F)cc4F)o3)CN([C@H]3CC[C@@](C)(O)CC3)C2)n1 [Example 1.057],100 to 1000 nM
13,COc1cc(C)cc(C(C)(C)NC(=O)CC2(NC(=O)c3cc(-c4ccc(F)cc4F)on3)CN([C@H]3CC[C@](C)(O)CC3)C2)c1 [Example 1.119],5 to 100 nM
14,CC(C)(NC(=O)CC1(NC(=O)c2nnc(-c3ccc(F)cc3F)s2)CN([C@H]2CC[C@](C)(O)CC2)C1)c1cccc(F)c1 [Example 1.042],< 5 nM
15,CC(C)(NC(=O)CC1(NC(=O)c2cc(-c3ccc(F)cc3F)on2)CN([C@H]2CCC[C@@H](O)C2)C1)c1ccccn1 [Example 1.286],5 to 100 nM
16,CC(C)(NC(=O)CC1(NC(=O)c2cc(-c3ccc(F)cc3F)on2)CN([C@H]2CC[C@@](C)(O)CC2)C1)c1cccc(C#N)c1 [Example 1.172],< 5 nM
17,C[C@]1(O)CC[C@H](N2CC(CC(=O)NCc3cccc(Cl)c3)(NC(=O)c3cc(-c4ccc(F)cc4F)on3)C2)CC1 [Example 1.110],1000 to 20000 nM
18,CC(C)(NC(=O)CC1(NC(=O)c2cc(-c3ccc(F)cc3F)on2)CN(C2CCCCC2)C1)c1ccc(F)cc1F [Example 1.263],1000 to 20000 nM
19,COc1cc(C)nc(C(C)(C)NC(=O)CC2(NC(=O)c3cc(-c4ccc(F)cc4F)on3)CN([C@H]3CC[C@@](C)(O)CC3)C2)n1 [Example 1.167],< 5 nM
20,Cc1cccc(C(C)(C)NC(=O)CC2(NC(=O)c3cc(-c4ccc(F)cc4F)on3)CN(CC3(C)COC3)C2)n1 [Example 1.217],5 to 100 nM

row,Compound,IC50
1,CC(C)(NC(=O)CC1(NC(=O)c2cc(-c3ccc(F)cc3F)on2)CN([C@H]2CC[C@@](C)(O)CC2)C1)c1ccc(F)cn1 [Example 1.207],100 to 1000 nM
2,CC(C)(NC(=O)CC1(NC(=O)c2cc(-c3ccc(F)cc3F)on2)CN(C2CCCCC2)C1)c1ccccn1 [Example 1.326],< 5 nM
3,CC(C)(NC(=O)CC1(NC(=O)c2cc(-c3ccc(F)cc3F)no2)CN([C@H]2CC[C@](C)(O)CC2)C1)c1cccc(Cl)c1 [Example 1.048],< 5 nM
4,CC(C)(NC(=O)CC1(NC(=O)c2nnc(-c3ccc(F)cc3F)s2)CN([C@H]2CC[C@](C)(O)CC2)C1)c1cc(F)cc(F)c1 [Example 1.028],5 to 100 nM
5,CC(C)(F)CN1CC(CC(=O)NC(C)(C)c2ccccn2)(NC(=O)c2cc(-c3ccc(F)cc3F)on2)C1 [Example 1.104],1000 to 20000 nM
6,Cc1cc(C)nc(C(C)(C)NC(=O)CC2(NC(=O)c3nnc(-c4ccc(F)cc4F)s3)CN([C@H]3CC[C@](C)(O)CC3)C2)n1 [Example 1.061],< 5 nM
7,C[C@]1(O)CC[C@H](N2CC(CC(=O)NC3(c4ccccn4)CC3)(NC(=O)c3cc(-c4ccc(F)cc4F)on3)C2)CC1 [Example 1.191],5 to 100 nM
8,CC(C)(NC(=O)CC1(NC(=O)c2cc(-c3ccc(F)cc3F)on2)CN([C@H]2CC[C@](C)(O)CC2)C1)c1ccccc1 [Example 1.268],< 5 nM
9,CC(C)(NC(=O)CC1(NC(=O)c2nnc(-c3ccc(F)cc3F)s2)CN([C@H]2CC[C@@](C)(O)CC2)C1)c1ccccn1 [Example 1.062],5 to 100 nM
10,CC(C)(NC(=O)CC1(NC(=O)c2cc(-c3ccc(F)cc3F)on2)CN([C@H]2CC[C@](C)(O)CC2)C1)c1ncccn1 [Example 1.233],< 5 nM
11,Cc1nc(C(C)(C)NC(=O)CC2(NC(=O)c3cc(-c4ccc(F)cc4F)on3)CN(C3CCC4(CC3)COC4)C2)sc1C [Example 1.245],100 to 1000 nM
12,Cc1cc(C(C)(C)NC(=O)CC2(NC(=O)c3nnc(-c4ccc(F)cc4F)s3)CN([C@H]3CC[C@](C)(O)CC3)C2)ccn1 [Example 1.335],5 to 100 nM
13,CC(C)(NC(=O)CC1(NC(=O)c2cc(-c3ccc(F)cc3F)on2)CN([C@H]2CC[C@@](C)(O)CC2)C1)c1cccc(Cl)c1 [Example 1.220],< 5 nM
14,CC(C)(NC(=O)CC1(NC(=O)c2cc(-c3ccc(F)cc3F)on2)CN([C@H]2CC[C@@](C)(O)CC2)C1)c1ccccc1C(F)(F)F [Example 1.292],< 5 nM
15,O=C(CC1(NC(=O)c2cc(-c3ccc(F)cc3F)on2)CN(C2CCCCC2)C1)N[C@@H](CO)c1ccccc1 [Example 1.310],1000 to 20000 nM
16,COc1cccc(C(C)(C)NC(=O)CC2(NC(=O)c3cc(-c4ccc(F)cc4F)on3)CN(C3CCC4(CC3)COC4)C2)c1 [Example 1.183],5 to 100 nM
17,O=C(CC1(NC(=O)c2cc(-c3ccc(F)cc3F)on2)CN(C2CCCCC2)C1)NC1(c2ccccc2)COC1 [Example 1.320],5 to 100 nM
18,COc1ccc(F)c(C(C)(C)NC(=O)CC2(NC(=O)c3cc(-c4ccc(F)cc4F)on3)CN([C@H]3CC[C@@](C)(O)CC3)C2)c1 [Example 1.205],5 to 100 nM
